Experimental data taken from paper PMC10403574, “Discovery of a pyrrole-pyridinimidazole derivative as novel SIRT6 inhibitor for sensitizing pancreatic cancer to gemcitabine” (Cell Death & Disease, 2023).

Experiments:
HDAC3 = HDAC3 (Homo sapiens, UniProt O15379); assay: Deacetylation activity selectivity, HDAC3; format: biochemical
From the text: (§1) Based on the above results, 8a was further investigated in this study. […] To further evaluate the selectivity of 8a for SIRT6, we examined the effect of 8a on the deacetylation activity of other HDAC family members, including HDAC1-HDAC11, SIRT1-SIRT3 and SIRT5. […] Furthermore, to confirm binding of 8a to SIRT6 in cells, we carried out the cellular thermal shift assay (CETSA). The CETSA approach builds on the thermal shift assay concept where ligand binding to its target protein enhances the target protein stability. We observed that the thermal stability of SIRT6 increased after 8a treatment (Figs. 2c, d).

[1] = system: islet α cells and β cells; assay: Immunofluorescence of pancreatic tissues (islet cell composition); format: in vivo; conditions: mice, 8a 20 mg/kg, 2 weeks
Procedure: Male C57BL/6 mice (18 ± 2 g, 5 weeks old) were randomly divided into four groups with six mice per group. Acute drug toxicity test was performed. Mice were fasted for 6 h, and basal blood glucose and serum insulin levels were measured by using Accu-Check Performa (Roche, Swiss) glucose meter and Mouse Insulin ELISA kit (Solarbio). Compound 8a (10, 20, 30 mg/kg) was intraperitoneally injected for 10 min, followed by glucose (2 g/kg) intraperitoneally injected. The blood glucose concentration was measured at 30 and 60 min after glucose injection, and the serum insulin content of mice was measured at 60 min. Compound 8a was treated every other day for 2 weeks and tested for chronic drug toxicity. According to the above method, the serum glucose and insulin content of mice were measured.
Pancreatic tissue sections were incubated with primary antibodies overnight at 4 °C. The primary antibodies were as follows: anti-Glucagon (Cell Signaling Technology, Cat#2760), anti-insulin (Cell Signaling Technology, Cat#3014). The sections were stained with secondary antibodies (Alexa Fluor 488-conjugated anti-rabbit IgG, Abcam, Cat#ab150077) for 2 h at 4 °C in dark. After washing with PBS, the sections were stained with DAPI and observed by confocal microscopy (Leica TCS SP8 STED 3X).

HDAC8 = HDAC8 (Homo sapiens, UniProt Q9BY41); assay: Deacetylation activity selectivity, HDAC8; format: biochemical
Sequence of HDAC8 (Q9BY41 whole entry, species assumed): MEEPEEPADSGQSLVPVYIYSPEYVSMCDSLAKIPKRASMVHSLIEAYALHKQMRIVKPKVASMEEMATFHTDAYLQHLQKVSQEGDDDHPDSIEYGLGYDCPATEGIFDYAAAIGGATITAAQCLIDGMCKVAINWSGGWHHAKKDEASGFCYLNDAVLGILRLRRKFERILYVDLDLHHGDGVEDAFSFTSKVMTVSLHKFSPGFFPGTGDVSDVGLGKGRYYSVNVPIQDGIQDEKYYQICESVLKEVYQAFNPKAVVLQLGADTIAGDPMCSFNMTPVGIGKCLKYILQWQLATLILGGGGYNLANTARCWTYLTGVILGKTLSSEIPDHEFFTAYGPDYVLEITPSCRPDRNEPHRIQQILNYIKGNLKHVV
From the text: as §1

Sequence of HDAC3 (O15379 whole entry, species assumed): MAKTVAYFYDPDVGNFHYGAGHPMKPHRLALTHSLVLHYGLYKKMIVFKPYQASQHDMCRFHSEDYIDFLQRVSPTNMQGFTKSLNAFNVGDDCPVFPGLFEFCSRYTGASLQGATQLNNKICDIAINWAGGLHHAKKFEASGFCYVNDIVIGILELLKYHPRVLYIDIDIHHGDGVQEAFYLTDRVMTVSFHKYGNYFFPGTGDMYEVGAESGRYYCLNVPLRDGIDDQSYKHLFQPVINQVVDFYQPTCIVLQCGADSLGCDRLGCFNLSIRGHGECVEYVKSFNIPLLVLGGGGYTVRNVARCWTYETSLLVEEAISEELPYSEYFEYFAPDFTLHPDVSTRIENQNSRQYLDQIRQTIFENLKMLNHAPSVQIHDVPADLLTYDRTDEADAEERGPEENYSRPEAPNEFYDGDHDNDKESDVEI
Sequence of HDAC3 (Q9Y618 395-489 partner limits assumed, species assumed): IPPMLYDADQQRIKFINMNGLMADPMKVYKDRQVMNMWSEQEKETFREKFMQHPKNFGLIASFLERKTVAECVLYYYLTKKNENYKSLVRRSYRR

SMILES: Br.CN(C)C(SCCCCCCn1cnc2c(-c3cc(Br)c(Br)[nH]3)nccc21)=[N+](C)C.[Cl-] [Compound 8a]
- IC50 (HDAC3): 112 ± 2.05 µM
- number of α cells and β cells in the islets [1]: no significant difference
- IC50 (HDAC8): 102 ± 2.01 µM
